In patent US20220395472A1 (Dermavant Sciences GmbH, priority 2021, published 2022):

Tested on: adults with plaque psoriasis
Experiment: Long-term open-label extension study (PSOARING 3): Physician Global Assessment (PGA), treatment episodes, treatment success, remittive effect
Assay type: in vivo, human
Protocol: This extension study consisted of up to 40 weeks of treatment and a 4 week, safety follow up period.
At the completion of the Week 12 visit of the DB, pivotal Phase 3 study, eligibility of the subjects opting to enroll in this extension study was confirmed. Study visits during the treatment period for all subjects occurred every 4 weeks (±3 days). A phone call was performed at Week 2 (Day 15). Unscheduled visits may have occurred, as needed. Subjects who withdrew from this study before Week 40 returned to the study center for an Early Termination visit. The total duration of this extension study participation was 44 weeks. Subjects in this study were treated as follows based on their PGA score from the Week 12 visit in the DB, pivotal Phase 3 study (Study DMVT 505 3001 or Study DMVT 505 3002).
The PGA was used to assess the primary efficacy endpoint in this study. The PGA is a clinical tool for assessing the current state/severity of a subject's psoriasis at a given time point. It is a static, 5 point, morphological assessment of overall disease severity, as determined by the Investigator, using the clinical characteristics of erythema, scaling, and plaque thickness/elevation as guidelines; higher PGA scores represent more severe disease (0=clear, 1=almost clear, 2=mild, 3=moderate, and 4=severe). The BSA affected was not considered in scoring of the PGA. Variations of the PGA are frequently used in clinical studies because it is a simple assessment, similar to those used in clinical practice. The PGA was performed first, prior to the % BSA, PASI, and LTS assessments.
Time to event parameters, such as the time from treatment success to subsequent worsening (PGA≥2) or duration of treatment episode, were summarized by the Kaplan Meier product limit method using OC.

[1] = Baseline PGA = 2, Tapinarof (Pivotal) group
[2] = Baseline PGA = 2, Vehicle (Pivotal) group
[3] = Baseline PGA = 3, Tapinarof (Pivotal) group
[4] = Baseline PGA = 3, Vehicle (Pivotal) group
[5] = Baseline PGA = 4, Tapinarof (Pivotal) group
[6] = Baseline PGA = 4, Vehicle (Pivotal) group

## CC(C)c1c(O)cc(/C=C/c2ccccc2)cc1O [Tapinarof, 3,5-Dihydroxy-4-isopropyl-trans-stilbene]
[1]
  Duration of 1st Success, Mean (SD): 81.3 (71.03) days
  Duration of 1st Success, Median: 57.0 days
  Duration of 2nd Episode, Mean (SD): 78.2 (54.89) days
  Duration of 2nd Episode, Median: 84.5 days
  Duration of 2nd Success, Mean (SD): 27.3 (30.06) days
  Duration of 2nd Success, Median: 25.0 days
  Duration of 3rd Episode, Mean (SD): 1.0 (NE) days
  Duration of 3rd Episode, Median: 1.0 days
  Duration of Last Episode, Mean (SD): 175.4 (98.91) days
  Duration of Last Episode, Median: 197.0 days
  Duration of Last Success, Mean (SD): 76.1 (72.82) days
  Duration of Last Success, Median: 56.0 days
  Total Duration of Treatment Episodes, Mean (SD): 190.1 (90.58) days
  Total Duration of Treatment Episodes, Median: 223.0 days
  Total Duration of Treatment Success, Mean (SD): 84.6 (71.17) days
  Total Duration of Treatment Success, Median: 78.0 days
[2]
  Average Duration of Episodes, Mean (SD): 169.8 (89.68) days
  Average Duration of Episodes, Median: 194.0 days
  Average Duration of Treatment Success, Mean (SD): 94.6 (65.57) days
  Average Duration of Treatment Success, Median: 87.0 days
  Duration of 1st Episode, Mean (SD): 173.2 (86.28) days
  Duration of 1st Episode, Median: 194.0 days
  Duration of 1st Success, Mean (SD): 110.8 (72.69) days
  Duration of 1st Success, Median: 115.5 days
  Duration of 2nd Episode, Mean (SD): 46.0 (42.39) days
  Duration of 2nd Episode, Median: 27.0 days
  Duration of 2nd Success, Mean (SD): 34.7 (51.14) days
  Duration of 2nd Success, Median: 27.5 days
  Duration of 3rd Episode, Mean (SD): 42.5 (19.09) days
  Duration of 3rd Episode, Median: 42.5 days
  Duration of 3rd Success, Mean (SD): 29.0 (NE) days
  Duration of 3rd Success, Median: 29.0 days
  Duration of Last Episode, Mean (SD): 166.2 (95.09) days
  Duration of Last Episode, Median: 194.0 days
  Duration of Last Success, Mean (SD): 79.8 (77.74) days
  Duration of Last Success, Median: 44.5 days
  Total Duration of Treatment Episodes, Mean (SD): 184.6 (78.19) days
  Total Duration of Treatment Episodes, Median: 196.5 days
  Total Duration of Treatment Success, Mean (SD): 127.9 (73.01) days
  Total Duration of Treatment Success, Median: 136.5 days
Baseline PGA = 3, Overall
  Average Duration of Episodes, Mean (SD): 178.0 (94.87) days
  Average Duration of Episodes, Median: 197.0 days
  Average Duration of Treatment Success, Mean (SD): 66.4 (56.88) days
  Average Duration of Treatment Success, Median: 51.0 days
  Duration of 1st Episode, Median: 197.0 days
  Duration of 1st Success, Mean (SD): 68.8 (57.40) days
  Duration of 1st Success, Median: 56.0 days
  Duration of 2nd Episode, Mean (SD): 58.8 (46.15) days
  Duration of 2nd Episode, Median: 55.0 days
  Duration of 2nd Success, Mean (SD): 31.5 (19.15) days
  Duration of 2nd Success, Median: 28.5 days
  Duration of 3rd Episode, Mean (SD): 55.2 (27.44) days
  Duration of 3rd Episode, Median: 57.0 days
  Duration of 3rd Success, Mean (SD): 28.0 (NE) days
  Duration of 3rd Success, Median: 28.0 days
  Duration of 4th Episode, Mean (SD): 1.0 (NE) days
  Duration of 4th Episode, Median: 1.0 days
  Duration of Last Episode, Mean (SD): 175.4 (98.29) days
  Duration of Last Episode, Median: 197.0 days
  Duration of Last Success, Mean (SD): 64.1 (58.23) days
  Duration of Last Success, Median: 51.0 days
  Total Duration of Treatment Episodes, Mean (SD): 187.9 (90.62) days
  Total Duration of Treatment Episodes, Median: 198.0 days
  Total Duration of Treatment Success, Mean (SD): 75.5 (57.18) days
  Total Duration of Treatment Success, Median: 64.0 days
[3]
  Average Duration of Episodes, Mean (SD): 184.7 (96.36) days
  Average Duration of Episodes, Median: 198.0 days
  Average Duration of Treatment Success, Mean (SD): 63.9 (54.43) days
  Average Duration of Treatment Success, Median: 48.3 days
  Duration of 1st Episode, Mean (SD): 187.1 (95.90) days
  Duration of 1st Episode, Median: 198.0 days
  Duration of 1st Success, Mean (SD): 62.6 (55.19) days
  Duration of 1st Success, Median: 43.0 days
  Duration of 2nd Episode, Mean (SD): 68.2 (77.66) days
  Duration of 2nd Episode, Median: 30.0 days
  Duration of 2nd Success, Mean (SD): 57.0 (NE) days
  Duration of 2nd Success, Median: 57.0 days
  Duration of Last Episode, Mean (SD): 182.2 (99.93) days
  Duration of Last Episode, Median: 198.0 days
  Duration of Last Success, Mean (SD): 65.2 (54.03) days
  Duration of Last Success, Median: 56.0 days
  Total Duration of Treatment Episodes, Mean (SD): 190.8 (95.50) days
  Total Duration of Treatment Episodes, Median: 200.0 days
  Total Duration of Treatment Success, Mean (SD): 67.3 (54.20) days
  Total Duration of Treatment Success, Median: 56.5 days
[4]
  Average Duration of Episodes, Mean (SD): 174.0 (94.06) days
  Average Duration of Episodes, Median: 195.0 days
  Average Duration of Treatment Success, Mean (SD): 67.1 (57.99) days
  Average Duration of Treatment Success, Median: 51.0 days
  Duration of 1st Episode, Mean (SD): 177.1 (92.70) days
  Duration of 1st Episode, Median: 195.5 days
  Duration of 1st Success, Mean (SD): 70.3 (58.38) days
  Duration of 1st Success, Median: 56.0 days
  Duration of 2nd Episode, Mean (SD): 56.4 (37.29) days
  Duration of 2nd Episode, Median: 55.5 days
  Duration of 2nd Success, Mean (SD): 29.2 (18.23) days
  Duration of 2nd Success, Median: 28.0 days
  Duration of 3rd Episode, Mean (SD): 55.2 (27.44) days
  Duration of 3rd Episode, Median: 57.0 days
  Duration of 3rd Success, Mean (SD): 28.0 (NE) days
  Duration of 3rd Success, Median: 28.0 days
  Duration of 4th Episode, Mean (SD): 1.0 (NE) days
  Duration of 4th Episode, Median: 1.0 days
  Duration of Last Episode, Mean (SD): 171.4 (97.39) days
  Duration of Last Episode, Median: 195.0 days
  Duration of Last Success, Mean (SD): 63.8 (59.74) days
  Duration of Last Success, Median: 49.0 days
  Total Duration of Treatment Episodes, Mean (SD): 186.1 (87.86) days
  Total Duration of Treatment Episodes, Median: 197.5 days
  Total Duration of Treatment Success, Mean (SD): 77.4 (58.26) days
  Total Duration of Treatment Success, Median: 81.0 days
Baseline PGA = 4, Overall
  Average Duration of Episodes, Mean (SD): 187.5 (102.01) days
  Average Duration of Episodes, Median: 225.0 days
  Average Duration of Treatment Success, Mean (SD): 104.5 (56.36) days
  Average Duration of Treatment Success, Median: 93.0 days
  Duration of 1st Episode, Mean (SD): 187.4 (102.04) days
  Duration of 1st Episode, Median: 225.0 days
  Duration of 1st Success, Mean (SD): 104.5 (56.36) days
  Duration of 1st Success, Median: 93.0 days
  Duration of 2nd Episode, Mean (SD): 85.0 (NE) days
  Duration of 2nd Episode, Median: 85.0 days
  Duration of Last Episode, Mean (SD): 187.5 (101.99) days
  Duration of Last Episode, Median: 225.0 days
  Duration of Last Success, Mean (SD): 104.5 (56.36) days
  Duration of Last Success, Median: 93.0 days
  Total Duration of Treatment Episodes, Mean (SD): 191.1 (99.63) days
  Total Duration of Treatment Episodes, Median: 225.0 days
  Total Duration of Treatment Success, Mean (SD): 104.5 (56.36) days
  Total Duration of Treatment Success, Median: 93.0 days
[5]
  Average Duration of Episodes, Mean (SD): 132.9 (100.39) days
  Average Duration of Episodes, Median: 113.0 days
  Average Duration of Treatment Success, Mean (SD): 119.5 (79.90) days
  Average Duration of Treatment Success, Median: 119.5 days
  Duration of 1st Episode, Mean (SD): 132.9 (100.39) days
  Duration of 1st Episode, Median: 113.0 days
  Duration of 1st Success, Mean (SD): 119.5 (79.90) days
  Duration of 1st Success, Median: 119.5 days
  Duration of Last Episode, Mean (SD): 132.9 (100.39) days
  Duration of Last Episode, Median: 113.0 days
  Duration of Last Success, Mean (SD): 119.5 (79.90) days
  Duration of Last Success, Median: 119.5 days
  Total Duration of Treatment Episodes, Mean (SD): 132.9(100.39) days
  Total Duration of Treatment Episodes, Median: 113.0 days
  Total Duration of Treatment Success, Mean (SD): 119.5 (79.90) days
  Total Duration of Treatment Success, Median: 119.5 days
[6]
  Average Duration of Episodes, Mean (SD): 211.3 (96.08) days
  Average Duration of Episodes, Median: 267.0 days
  Average Duration of Treatment Success, Mean (SD): 89.5 (47.38) days
  Average Duration of Treatment Success, Median: 89.5 days
  Duration of 1st Episode, Mean (SD): 211.3 (96.13) days
  Duration of 1st Episode, Median: 267.0 days
  Duration of 1st Success, Mean (SD): 89.5 (47.38) days
  Duration of 1st Success, Median: 89.5 days
  Duration of 2nd Episode, Mean (SD): 85.0 (NE) days
  Duration of 2nd Episode, Median: 85.0 days
  Duration of Last Episode, Mean (SD): 211.4 (96.04) days
  Duration of Last Episode, Median: 267.0 days
  Duration of Last Success, Mean (SD): 89.5 (47.38) days
  Duration of Last Success, Median: 89.5 days
  Total Duration of Treatment Episodes, Mean (SD): 216.6 (90.82) days
  Total Duration of Treatment Episodes, Median: 267.0 days
  Total Duration of Treatment Success, Mean (SD): 89.5 (47.38) days
  Total Duration of Treatment Success, Median: 89.5 days
Baseline, Overall
  PGA 0 - Clear: 78 (10.3) n (%)
  PGA 1 - Almost Clear: 161 (21.2) n (%)
  PGA 2 - Mild: 248 (32.7) n (%)
